In US20250325555A1, “Method of Treating Obesity with a Luteinizing Hormone Receptor Agonist” (ICAHN SCHOOL OF MEDICINE AT MOUNT SINAI, priority 2022, published 2025):

Assays:
[1] = test system: C57BL/6 mice fed on high-fat diet; experiment: ORG 43553 in C57BL/6 mice on high-fat diet, 9 weeks (Example 6); type: in vivo, mouse; details: 17 mg/kg subcutaneous
Experimental: In order to evaluate the effect of treatment with LHCGR agonist ORG 43553 on body fat in mice, 14-week-old C57BL/6 mice (25 mice/group) were treated with subcutaneous injections of vehicle or ORG 43553 (17 mg/kg), and fed on high-fat diet for 9 weeks.

[2] = test system: organoids derived from 3T3-L1 cells; experiment: adipose organoids derived from 3T3-L1 cells, thickness of differentiating cell layer; type: cell-based, mouse; details: exposed for 3 days, further differentiated 7 days
Experimental: (§1) In order to study the mechanism of LHCGR activation on body fat, 3T3.L1 pre-adipocytes and adipose organoids were used. Oil Red 0 staining can be used to mark lipid-containing vacuoles and quantify cell lipid content. […] The thickness of the “differentiating cell layer” was measured with QuPath-0.2.3.

3T3-L1 adipocytes [3] = experiment: oil droplet accumulation (Oil Red O staining) in 3T3-L1 adipocytes; type: cell-based, mouse; details: 6 nM, 12 hours
Experimental: as §1

adipose LHCGR = biological target: T1, adipose LHCGR (Mus musculus, UniProt P30730); experiment: ERK1/2 phosphorylation in differentiated 3T3-L1 adipocytes (Western blot); type: cell-based
T1 construct: host or cells: differentiated 3T3-L1 adipocytes
T1 sequence (P30730 27-700): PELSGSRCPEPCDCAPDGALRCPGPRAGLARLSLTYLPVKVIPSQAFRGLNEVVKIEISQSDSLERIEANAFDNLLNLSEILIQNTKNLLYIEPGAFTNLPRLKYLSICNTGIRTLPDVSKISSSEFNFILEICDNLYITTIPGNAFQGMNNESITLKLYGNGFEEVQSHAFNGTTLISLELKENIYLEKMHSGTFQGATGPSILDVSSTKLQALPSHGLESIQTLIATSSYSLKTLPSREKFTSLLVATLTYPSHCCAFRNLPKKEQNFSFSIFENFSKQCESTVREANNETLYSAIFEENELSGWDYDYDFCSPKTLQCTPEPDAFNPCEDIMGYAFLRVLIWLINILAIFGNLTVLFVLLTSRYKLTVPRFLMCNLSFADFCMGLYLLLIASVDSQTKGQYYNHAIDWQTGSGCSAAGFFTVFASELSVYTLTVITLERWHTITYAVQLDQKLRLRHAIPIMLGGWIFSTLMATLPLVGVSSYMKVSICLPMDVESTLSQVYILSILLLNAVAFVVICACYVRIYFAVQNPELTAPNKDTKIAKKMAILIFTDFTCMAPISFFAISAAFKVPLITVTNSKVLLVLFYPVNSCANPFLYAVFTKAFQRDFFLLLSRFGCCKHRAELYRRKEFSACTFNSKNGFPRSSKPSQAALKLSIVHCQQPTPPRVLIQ
Excerpt: siRNA KNOCKDOWN: Lentiviral vectors expressing Lhcgr siRNA (ABM 2649609) or siControl (ABM LVP015-G) were used per manufacturer's recommendation.
WESTERN BLOTTING: Proteins were blotted with commercial antibodies (Cell Signaling, Phospho-ERK1/2, 9101S; ERK1/2, 4695S, 1:5000).

human LHCGR = human LHCGR (Homo sapiens, UniProt P22888); details: read-out: EC50, agonistic activity to human LHCGR; cited from earlier work
Sequence of human LHCGR (P22888 27-699): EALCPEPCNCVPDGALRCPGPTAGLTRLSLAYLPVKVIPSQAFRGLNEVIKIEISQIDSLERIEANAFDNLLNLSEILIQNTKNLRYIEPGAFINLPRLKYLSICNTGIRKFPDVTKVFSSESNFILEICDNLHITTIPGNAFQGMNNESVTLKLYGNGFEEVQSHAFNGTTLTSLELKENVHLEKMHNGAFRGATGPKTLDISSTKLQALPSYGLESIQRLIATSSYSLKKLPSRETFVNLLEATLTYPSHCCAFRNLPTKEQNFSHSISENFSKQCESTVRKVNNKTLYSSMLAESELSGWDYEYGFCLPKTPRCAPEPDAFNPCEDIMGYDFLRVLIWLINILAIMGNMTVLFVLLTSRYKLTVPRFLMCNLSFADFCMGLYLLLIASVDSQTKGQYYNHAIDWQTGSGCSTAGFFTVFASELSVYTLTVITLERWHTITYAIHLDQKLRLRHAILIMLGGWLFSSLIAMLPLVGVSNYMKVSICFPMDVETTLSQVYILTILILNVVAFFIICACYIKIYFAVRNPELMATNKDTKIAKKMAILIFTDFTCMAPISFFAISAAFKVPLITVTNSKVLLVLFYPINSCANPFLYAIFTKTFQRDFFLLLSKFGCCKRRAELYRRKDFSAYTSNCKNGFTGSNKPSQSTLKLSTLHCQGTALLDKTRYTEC

male C57BL/6 mice = experiment: ORG 43553 in male C57BL/6 mice, 9 weeks (Example 8, incl. replication cohort); type: in vivo, mouse
Experimental: Next, the LHCGR agonist ORG 43553 was injected into male C57BL/6 mice (N=24/group) (17 mg/kg, subcutaneous, twice-a-week) for 9 weeks.

3T3-L1 adipocytes [4] = experiment: oxygen consumption rate (OCR) on Seahorse Xf96 Analyzer; type: cell-based, mouse; details: pretreated for 1 hour
Experimental: (§2) 3T3-L1 adipocytes were thus pretreated with ORG 43553 for 1 hour before measuring oxygen consumption rate (OCR) on a Seahorse Xf96 Analyzer. […] ORG 43553 increased OCR at baseline and upon oligomycin exposure, indicating mitochondria proton leak—a surrogate for thermogenesis. To confirm increased energy expenditure in vivo, mice (N=6/group) on high-fat diet were acclimated to metabolic cages for 1 day, before being injected subcutaneously with ORG 43553 (17 mg/kg, blue line) or vehicle and monitored for 48 hours.

mice on high-fat diet = experiment: metabolic cages, mice on high-fat diet; type: in vivo, mouse; details: 17 mg/kg subcutaneous, monitored for 48 hours
Experimental: as §2

[5] = 17 mg/kg subcutaneous twice-a-week, 9 weeks

CSc1nc(-c2cccc(NC(=O)CN3CCOCC3)c2)c2c(N)c(C(=O)NC(C)(C)C)sc2n1 [ORG 43553, 5-amino-2-methylsulfanyl-4-[3-(2-morpholin-4-yl-acetylamino)-phenyl]-thieno[2,3-d]pyrimidine-6-carboxylic acid tert-butylamide]
diet-induced fat mass [1]: reduced | gWAT weight [1]: lower | iWAT weight [1]: lower | lean mass [1]: but not lean mass | mWAT weight [1]: lower | total mass [1]: reduced | differentiated layer of organoids (thickness) compared to vehicle-treated organoids [2]: substantial reduction | oil droplet accumulation (Oil Red O staining) (3T3-L1 adipocytes [3]): reduced oil droplet accumulation | ERK1/2 phosphorylation (adipose LHCGR; differentiated 3T3-L1 adipocytes): rapidly induced ERK1/2 phosphorylation in a concentration-dependent manner | ERK1/2 phosphorylation with LHCGR siRNA knockdown (adipose LHCGR; siLhcgr 3T3-L1 cells): no signal | EC50 (human LHCGR): 3.7 nM | fat mass (male C57BL/6 mice; [5]): significant reduction | gWAT (male C57BL/6 mice; [5]): reduced | iWAT (male C57BL/6 mice; [5]): reduced | number of adipocytes in iWAT with areas below 4000 μm^2 (male C57BL/6 mice; [5]): greater numbers | number of adipocytes in iWAT with areas greater than 4000 μm^2 (male C57BL/6 mice; [5]): fewer | renal WAT (rWAT) (male C57BL/6 mice; [5]): reduced | fat mass (male C57BL/6 mice; replication cohort): significant reduction | gWAT (male C57BL/6 mice; replication cohort): reduced | iWAT (male C57BL/6 mice; replication cohort): reduced | mWAT (male C57BL/6 mice; replication cohort): reduced | total mass (male C57BL/6 mice; replication cohort): significant reduction | oxygen consumption rate (OCR) at baseline (3T3-L1 adipocytes [4]): increased | oxygen consumption rate (OCR) upon oligomycin exposure (3T3-L1 adipocytes [4]): increased | energy expenditure (EE) (mice on high-fat diet): increased acutely | oxygen consumption (VO2) (mice on high-fat diet): increased acutely
